Results on 8 compounds are retold here after patent US20220313698A1, “MODULATORS OF CYSTIC FIBROSIS TRANSMEMBRANE CONDUCTANCE REGULATOR” (Vertex Pharmaceuticals Incorporated, priority 2019, published 2022).

Structures are written as SMILES. Where “and” joins values, the source holds several entries; their conditions need not be identical. Equal entries are not always repeated. Where two headings read alike, the source gives them in different places. Some results are limits rather than exact numbers.

Data set [1] has as its target T1, CFTR-mediated chloride transport (Homo sapiens, UniProt P13569). The experiment in a line: Corrector Assay A - membrane potential dye assay (enteroid cells).
For data set [2] the following is noted: snar bond, 15-membered ring.
Data set [3] concerns the target T1, CFTR-mediated chloride transport. The experiment in a line: Corrector Assay B - membrane potential dye assay (enteroid cells).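 Also: methyl oxonol membrane potential fluorescence followed over 15 min after switching to chloride-free buffer with forskolin, 100 µM IBMX and ivacaftor, in presence of CaCC blockers.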

The EC50 is the midpoint of the concentration-response curve. For the compound `CC(C)(C)c1ncc2c(n1)N1C[C@@H](CCCNc3cccc(n3)S(=O)(=O)NC2=O)CC1(C)C` [Compound 11, (14S)-8-tert-butyl-12,12-dimethyl-2λ^6-thia-3,7,9,11,18,23-hexaazatetracyclo[17.3.1.111,14.05,10]tetracosa-1(22),5,7,9,19(23),20-hexaene-2,2,4-trione], the “Corrector Assay A % activity” value in data set [1] (% of chloride transport of triple combination control (1 μM (14S)-dispiro macrocycle + 3 μM tezacaftor + 300 nM ivacaftor)) is “++ (++ is 30-60%)”. Moreover, the 50% effective concentration (EC50) in data set [1] (read-out: Corrector Assay A EC50, human intestinal enteroid cells, 18-24 h incubation, acute 10 μM forskolin + 300 nM ivacaftor) was in the range of 1000 to 3000 nM. Further, the ring closure, isolated yield in data set [2] (from 2-tert-Butyl-4-chloro-N-[[6-[3-[(3S)-5,5-dimethylpyrrolidin-3-yl]propylamino]-2-pyridyl]sulfonyl]pyrimidine-5-carboxamide (dihydrochloride salt), K2CO3/CsF, NMP, 123.1 mM, 150.0 °C) was determined as 13%.

For `CC1(C)CC(C2CC[C@@H]3CN(c4nc(C(C)(C)C)ccc4C(=O)NS(=O)(=O)c4cccc(n4)N2)C(C)(C)C3)CC(C)(C)O1` (mixture of isomers), the ring closure, isolated yield in data set [2] (from 6-tert-Butyl-N-[[6-[[3-[(3S)-5,5-dimethylpyrrolidin-3-yl]-1-(2,2,6,6-tetramethyltetrahydropyran-4-yl)propyl]amino]-2-pyridyl]sulfonyl]-2-fluoro-pyridine-3-carboxamide (Trifluoroacetic Acid (1)), K2CO3, DMF, 80.7 mM, 140.0 °C) worked out at 48%. As to `C=CC1CC[C@@H]2CN(c3nc(C(C)(C)C)ccc3C(=O)NS(=O)(=O)c3cccc(n3)N1)C(C)(C)C2` (stereo partly drawn), the ring closure, isolated yield in data set [2] (from C=CC(CC[C@@H]1CN(C(=O)OC(C)(C)C)C(C)(C)C1)Nc1cccc(S(=O)(=O)NC(=O)c2ccc(C(C)(C)C)nc2F)n1, K2CO3, NMP, 159.0 mM, 150.0 °C, 2 steps) is 22% and 25%. In turn, `CC(C)(C)c1ccnc(C2CC[C@H]3CCN(C3)c3nc(C(C)(C)C)ccc3C(=O)NS(=O)(=O)c3cccc(n3)N2)c1` (stereo partly drawn) returned a ring closure, isolated yield in data set [2] (from CC(C)(C)c1ccnc(C(CC[C@H]2CCNC2)Nc2cccc(S(=O)(=O)NC(=O)c3ccc(C(C)(C)C)nc3F)n2)c1, K2CO3, DMSO, 77.9 mM, 120.0 °C, 2.0 h) of 54%. `CC1(C)C[C@@H]2CCC(c3cncnc3)Nc3cccc(n3)S(=O)(=O)NC(=O)c3ccc(-n4ccc(OCCC5(C(F)(F)F)CC5)n4)nc3N1C2` (stereo partly drawn) returned a ring closure, isolated yield in data set [2] (from CC1(C)C[C@H](CCC(Nc2cccc(S(=O)(=O)NC(=O)c3ccc(-n4ccc(OCCC5(C(F)(F)F)CC5)n4)nc3Cl)n2)c2cncnc2)CN1, K2CO3/3A MS, DMSO, 49.2 mM, 155.0 °C, 18.0 h) of 28%. Turning to `CC(C)(C)CC1CNc2cccc(n2)S(=O)(=O)NC(=O)c2ccc(-n3ccc(OCCC4C5(CC5)C45CC5)n3)nc2N2C[C@@H](C1)CC2(C)C` (stereo partly drawn), in data set [2] (from CC(C)(C)CC(CNc1cccc(S(=O)(=O)NC(=O)c2ccc(-n3ccc(OCCC4C5(CC5)C45CC5)n3)nc2Cl)n1)C[C@@H]1CNC(C)(C)C1, K2CO3, DMSO, 73.6 mM, 120.0 °C, 20.0 h), the ring closure, isolated yield came out at 44%. Regarding `CC(C)(C)c1ccc2c(n1)N1C[C@@H](CCC(c3cc(Br)ccn3)Nc3cccc(n3)S(=O)(=O)NC2=O)CC1(C)C` (stereo partly drawn), the ring closure, isolated yield in data set [2] (from CC(C)(C)OC(=O)N1C[C@@H](CCC(Nc2cccc(S(=O)(=O)NC(=O)c3ccc(C(C)(C)C)nc3F)n2)c2cc(Br)ccn2)CC1(C)C, K2CO3, NMP, 77.8 mM, 150.0 °C, 2 steps) turned out to be 21%. In the case of `CC1(C)C[C@@H]2CCCN(c3ccccc3)c3cccc(n3)S(=O)(=O)NC(=O)c3ccc(-n4ccc(OCCC5(C(F)(F)F)CC5)n4)nc3N1C2` [Compound 395, (14S)-12,12-dimethyl-18-phenyl-8-(3-{2-[1-(trifluoromethyl)cyclopropyl]ethoxy}-1H-pyrazol-1-yl)-2λ^6-thia-3,9,11,18,23-pentaazatetracyclo[17.3.1.111,14.05,10]tetracosa-1(23),5(10),6,8,19,21-hexaene-2,2,4-trione], the “Corrector Assay B % activity” value in data set [3] (% of chloride transport of triple combination control (3 μM Compound A + 3 μM tezacaftor + 300 nM ivacaftor)) was “++ (++ is 30-60%)”. For the same compound, in data set [3] (read-out: Corrector Assay B EC50, human intestinal enteroid cells, 18-24 h incubation, acute 10 μM forskolin + 300 nM ivacaftor), the EC50 is below 1000 nM. For the same compound, the ring closure, isolated yield in data set [2] (from CC1(C)C[C@H](CCCN(c2ccccc2)c2cccc(S(=O)(=O)NC(=O)c3ccc(-n4ccc(OCCC5(C(F)(F)F)CC5)n4)nc3Cl)n2)CN1, K2CO3/3A MS, DMSO, 19.9 mM, 155.0 °C, 16.0 h, 2 steps) was 46%.
